These results are taken from patent publication US9440901B2, “Method for producing reduced coenzyme Q10” (KANEKA CORPORATION, priority 2012, dated 2016).

The nature of series [1]: solubility of the crystal forms of reduced coenzyme Q10. To be noted: compared to Form I crystal. The class given is physicochemical.
The conditions of series [2]: background statement; cited from earlier work.

Consider `COc1c(O)c(C)c(C/C=C(\C)CC/C=C(\C)CC/C=C(\C)CC/C=C(\C)CC/C=C(\C)CC/C=C(\C)CC/C=C(\C)CC/C=C(\C)CC/C=C(\C)CCC=C(C)C)c(O)c1OC` [Form II, reduced coenzyme Q10], for which the “solubility compared with conventional reduced coenzyme Q10 crystals (Form I)” value in series [1] is “lower solubility”. Take `COc1c(O)c(C)c(C/C=C(\C)CC/C=C(\C)CC/C=C(\C)CC/C=C(\C)CC/C=C(\C)CC/C=C(\C)CC/C=C(\C)CC/C=C(\C)CC/C=C(\C)CCC=C(C)C)c(O)c1OC` [reduced coenzyme Q10]: in series [2], the “oral absorbability compared to oxidized coenzyme Q10” value is reported as “high oral absorbability”.
